Measurements: US20160108027A1, “SUBSTITUTED BENZOXAZOLES” (BAYER PHARMA AKTIENGESELLSCHAFT, priority 2013, published 2016)

What was measured:
thrombin [1] = target: T1, thrombin (Homo sapiens, UniProt P00734); assay: Measurement of the thrombin inhibition in buffer; type: biochemical; details: human thrombin 0.06 nmol/l in Tris buffer pH 7.4, 22° C., substrate Boc-Asp(OBzl)-Pro-Arg-AMC; in some cases means of individual determinations
Experimental: To determine the thrombin inhibition of the substances listed above, a biochemical test system is constructed in which the conversion of a thrombin substrate is used for determining the enzymatic activity of human thrombin. Here, thrombin cleaves aminomethylcoumarin, which is measured fluorescently, from the peptic substrate. The determinations are carried out in microtitre plates.
Substances to be tested are dissolved in various concentrations in dimethyl sulphoxide and incubated for 15 min with human thrombin (0.06 nmol/l dissolved in 50 mmol/l of Tris buffer [C,C,C-tris(hydroxymethyl)aminomethane], 100 mmol/l of sodium chloride, 0.1% BSA [bovine serum albumin], pH 7.4) at 22° C. The substrate (5 μmol/l Boc-Asp(OBzl)-Pro-Arg-AMC from Bachem) is then added. After 30 min of incubation, the sample is excited at a wavelength of 360 nm and the emission is measured at 460 nm. The measured emissions of the test mixtures with test substance are compared to the control mixtures without test substance (only dimethyl sulphoxide instead of test substance in dimethyl sulphoxide) and IC50 values are calculated from the concentration/activity relationships. Representative activity data from this test are given in Table 1 below (in some cases as means of individual determinations): […]

thrombin [2] = target: T1, thrombin; assay: Determination of the thrombin-inhibitory activity in plasma samples (ecarin-activated); type: biochemical; details: citrate plasma, ecarin activation, fluorogenic thrombin substrate; in some cases means of individual determinations
Experimental: To determine the inhibition of thrombin in plasma samples, plasma […] is activated by ecarin. Thrombin activity and/or its inhibition by potential inhibitors is/are then measured fluorenscently by addition of a substrate.
The substances to be tested are dissolved in various concentrations in dimethyl sulphoxide and diluted with water. In white 96-well flat-bottomed plates, 20 μl of substance dilution are mixed with 20 μl of ecarin solution (ecarin reagent, from Sigma E-0504, final concentration 20 mU per reaction) in Ca buffer (200 mM Hepes+560 mM sodium chloride+10 mM calcium chloride+0.4% PEG) or with 20 μl of Ca buffer (as unstimulated control). Furthermore, 20 μl of fluorogenic thrombin substrate (from Bachem 1-1120, final concentration 50 μmol/1) and 20 μl of citrate plasma (from Octapharma) are added, and the mixture is homogenized well. The plate is measured in a SpectraFluorplus Reader using a 360 nm excitation filter and a 465 nm emission filter every minute over 20 minutes. […] Representative activity data from this test are given in Table 2 below (in some cases as means of individual determinations): […]

Row | Compound | IC50 (thrombin [1]) | IC50 (thrombin [2])
1 | COc1cc(C(=O)N2CC(C)(CC(C)O)OCC2CF)cc2nc(NCc3cc(Cl)ccn3)oc12 (racemic) [Example 22, (2-{[(4-Chloropyridin-2-yl)methyl]amino}-7-methoxy-1,3-benzoxazol-5-yl) [5-(fluoromethyl)-2-(2-hydroxypropyl)-2-methylmorpholin-4-yl]methanone] | 1.7 nM | 11 nM
2 | COc1cc(C(=O)N2CC(C)(CCO)OCC2(C)C)cc2nc(NCc3cc(Cl)ccn3)oc12 (racemic) [Example 32, (2-{[(4-Chloropyridin-2-yl)methyl]amino}-7-methoxy-1,3-benzoxazol-5-yl) [2-(2-hydroxyethyl)-2,5,5-trimethylmorpholin-4-yl]methanone] | 12 nM | 36 nM
3 | COc1cc(C(=O)N2CC(C)(CC(C)O)OCC2(C)C)cc2nc(NCc3cc(Cl)ccn3)oc12 (racemic) [Example 34, (2-{[(4-Chloropyridin-2-yl)methyl]amino}-7-methoxy-1,3-benzoxazol-5-yl) [2-(2-hydroxypropyl)-2,5,5-trimethylmorpholin-4-yl]methanone] | 7.3 nM | 37 nM
4 | COc1cc(C(=O)N2CC(C)(C)OCC2(C)CO)cc2nc(NCc3cc(Cl)ccn3)oc12 (racemic) [Example 38, (2-{[(4-Chloropyridin-2-yl)methyl]amino}-7-methoxy-1,3-benzoxazol-5-yl) [5-(hydroxymethyl)-2,2,5-trimethylmorpholin-4-yl]methanone] | 13 nM | 22 nM
5 | COCC1COC(C)(C)CN1C(=O)c1cc(OC)c2oc(NCc3cc(Cl)ccn3)nc2c1 (racemic) [Example 41, (2-{[(4-Chloropyridin-2-yl)methyl]amino}-7-methoxy-1,3-benzoxazol-5-yl) [5-(methoxymethyl)-2,2-dimethylmorpholin-4-yl]methanone] | 50 nM | 50 nM
6 | COc1cc(C(=O)N2CC(C)(C)OCC2CF)cc2nc(NCc3cc(Cl)ccn3)oc12 (racemic) [Example 42, (2-{[(4-Chloropyridin-2-yl)methyl]amino}-7-methoxy-1,3-benzoxazol-5-yl) [5-(fluoromethyl)-2,2-dimethylmorpholin-4-yl]methanone] | 27 nM | 34 nM
7 | COc1cc(C(=O)N2CC(C)OCC2(C)C)cc2nc(NCc3cc(Cl)ccn3)oc12 (racemic) [Example 44, (2-{[(4-Chloropyridin-2-yl)methyl]amino}-7-methoxy-1,3-benzoxazol-5-yl)(2,5,5-trimethylmorpholin-4-yl)methanone] | 32 nM | 
8 | COc1cc(C(=O)N2CC(C)OCC2CC(C)(C)O)cc2nc(NCc3cc(Cl)ccn3)oc12 (racemic) [Example 55, (2-{[(4-Chloropyridin-2-yl)methyl]amino}-7-methoxy-1,3-benzoxazol-5-yl) [5-(2-hydroxy-2-methylpropyl)-2-methylmorpholin-4-yl]methanone] | 21 nM | 33 nM
9 | COc1cc(C(=O)N2CC(C)OCC2CCO)cc2nc(NCc3cc(Cl)ccn3)oc12 (racemic) [Example 70, (2-{[(4-Chloropyridin-2-yl)methyl]amino}-7-methoxy-1,3-benzoxazol-5-yl) [5-(2-hydroxyethyl)-2-methylmorpholin-4-yl]methanone] | 38 nM | 74 nM
10 | COc1cc(C(=O)N2CC3(CC3)NC(=O)C2C)cc2nc(NCc3cc(Cl)ccn3)oc12 (racemic) [Example 76, 7-[(2-{[(4-Chloropyridin-2-yl)methyl]amino}-7-methoxy-1,3-benzoxazol-5-yl)carbonyl]-6-methyl-4,7-diazaspiro[2.5]octan-5-one] | 19 nM | 36 nM
11 | CCC1C(=O)NC2(CC2)CN1C(=O)c1cc(OC)c2oc(NCc3cc(Cl)ccn3)nc2c1 (racemic) [Example 78, 7-[(2-{[(4-Chloropyridin-2-yl)methyl]amino}-7-methoxy-1,3-benzoxazol-5-yl)carbonyl]-6-ethyl-4,7-diazaspiro[2.5]octan-5-one] | 13 nM | 19 nM
12 | COc1cc(C(=O)N2CC(C)(C)NC(=O)C2CC(N)=O)cc2nc(NCc3cc(Cl)ccn3)oc12 (racemic) [Example 82, 2-{1-[(2-{[(4-Chloropyridin-2-yl)methyl]amino}-7-methoxy-1,3-benzoxazol-5-yl)carbonyl]-5,5-dimethyl-3-oxopiperazin-2-yl}acetamide] | 170 nM | 
13 | COc1cc(C(=O)N2CC(C)(C)NC(=O)C2CC#N)cc2nc(NCc3cc(Cl)ccn3)oc12 (racemic) [Example 83, {1-[(2-{[(4-Chloropyridin-2-yl)methyl]amino}-7-methoxy-1,3-benzoxazol-5-yl)carbonyl]-5,5-dimethyl-3-oxopiperazin-2-yl}acetonitrile] | 36 nM | 62 nM
14 | CCO[C@@H]1CC(CO)N(C(=O)c2cc(OC)c3oc(NCc4cc(Cl)ccn4)nc3c2)C1 (single isomer, unassigned) [Example 2] | 6.2 nM | 19 nM
15 | CCO[C@@H]1CC(CO)N(C(=O)c2cc(OC)c3oc(NCc4cc(Cl)ccn4)nc3c2)C1 (single isomer, unassigned) [Example 3] | 330 nM | 
16 | CCO[C@@H]1CC(CO)N(C(=O)c2cc(OC)c3oc(NC(C)c4cc(Cl)ccn4)nc3c2)C1 (single isomer, unassigned) [Example 5] | 2800 nM | 
17 | COc1cc(C(=O)N2C[C@H](OCC(F)F)CC2CO)cc2nc(NCc3cc(Cl)ccn3)oc12 (single isomer, unassigned) [Example 7] | 37 nM | 70 nM
18 | [2H]C([2H])(C)O[C@@H]1CC(CO)N(C(=O)c2cc(OC)c3oc(NC(C)c4cc(Cl)ccn4)nc3c2)C1 (single isomer, unassigned) [Example 8] | 2600 nM | 
19 | [2H]C([2H])(C)O[C@@H]1CC(CC#N)N(C(=O)c2cc(OC)c3oc(NCc4cc(Cl)ccn4)nc3c2)C1 (single isomer, unassigned) [Example 9] | 9.7 nM | 13 nM
20 | COc1cc(C(=O)N2C[C@H](OC3CC3)C[C@H]2CO)cc2nc(NC(C)c3cc(Cl)ccn3)oc12 (single isomer, unassigned) [Example 14] | 550 nM | 
21 | COc1cc(C(=O)N2C[C@H](OC3CC3)C[C@H]2CO)cc2nc(NC(C)c3cc(Cl)ccn3)oc12 (single isomer, unassigned) [Example 15] | 6.4 nM | 21 nM
22 | COc1cc(C(=O)N2CCCC2(C)C(=O)N2CC(F)(F)C2)cc2nc(NCc3cc(Cl)ccn3)oc12 (single isomer, unassigned) [Example 16, (2-{[(4-Chloropyridin-2-yl)methyl]amino}-7-methoxy-1,3-benzoxazol-5-yl){2-[(3,3-difluoroazetidin-1-yl)carbonyl]-2-methylpyrrolidin-1-yl}methanone] | 30 nM | 36 nM
23 | COc1cc(C(=O)N2CC(C)(C)OCC2CC(C)O)cc2nc(NCc3cc(Cl)ccn3)oc12 (single isomer, unassigned) [Example 64, (2-{[(4-Chloropyridin-2-yl)methyl]amino}-7-methoxy-1,3-benzoxazol-5-yl) [5-(2-hydroxypropyl)-2,2-dimethylmorpholin-4-yl]methanone] | 44 nM | 
24 | COc1cc(C(=O)N2CC(C)OCC2CC(C)O)cc2nc(NCc3cc(Cl)ccn3)oc12 (single isomer, unassigned) [Example 66, (2-{[(4-Chloropyridin-2-yl)methyl]amino}-7-methoxy-1,3-benzoxazol-5-yl) [5-(2-hydroxypropyl)-2-methylmorpholin-4-yl]methanone] | 28 nM | 
25 | COc1cc(C(=O)N2CC(C)OCC2CCO)cc2nc(NCc3cc(Cl)ccn3)oc12 (single isomer, unassigned) [Example 71, (2-{[(4-Chloropyridin-2-yl)methyl]amino}-7-methoxy-1,3-benzoxazol-5-yl) [5-(2-hydroxyethyl)-2-methylmorpholin-4-yl]methanone] | 97 nM | 
26 | COc1cc(C(=O)N2CC(C)CCC2CC2(O)CC2)cc2nc(NCc3cc(Cl)ccn3)oc12 (single isomer, unassigned) [Example 88, (2-{[(4-Chloropyridin-2-yl)methyl]amino}-7-methoxy-1,3-benzoxazol-5-yl){2-[(1-hydroxycyclopropyl)methyl]-5-methylpiperidin-1-yl}methanone] | 6.6 nM | 
